Reference: patent EP0297435A2, “Aminopropanol derivatives of 3-(3'-hydroxyphenyl)-1-propanone, process for their preparation and medicines containing these compounds” (Helopharm W. Petrik GmbH & Co.KG., priority 1987, dated 1989)

Experiments:
[1] = Acute toxicity LD50 in rats, i.v.; conditions: rat, in vivo, iv; Ratte (i.v.); read-out: LD₅₀
[2] = tested on: Purkinje-Fasern aus Hundeherzen; experiment: Electrophysiological studies on Purkinje fibres from dog hearts (Vmax); assay type: cell-based, Hund; conditions: for IC20 / C20 Vmax: Purkinje-Fasern aus Hundeherzen; for IC20: read-out: C20 Vmax; for Prematurity Faktor Vmax: Vorzeitigkeitsindex, activity on premature extrasystoles; for Rate-Faktor von Vmax: specifically stronger activity at higher frequencies
From the text: Die antiarrhythmische Wirksamkeit der erfindungsgemäßen Verbindungen wurde sowohl anhand von elektrophysiologischen Studien an Purkinje-Fasern aus Hundeherzen sowie mit Hilfe von Ouabaininduzierten ventrikulären Tachykardien bei Hunden bestimmt. […]
Als zusätzliches Kriterium wurde der Vorzeitigkeitsindex (Prematurity-Faktor) bestimmt, der die erwünschte Wirksamkeit der erfindungsgemäßen Verbindungen bei vorzeitigen Extrasystolen charakterisiert.

[3] = tested on: Meerschweinchen-Papillarmuskel; experiment: Effect on contraction force of the heart, guinea pig papillary muscle; assay type: cell-based; conditions: contraction force (negative inotropy); for IC20: read-out: C20 CF
From the text: Die Wirkung auf die Kontraktionskraft des Herzens wurde am Meerschweinchen-Papillarmuskel untersucht. Hämodynamische Studien wurden bei gesunden, wie auch akut infarzierten Hunden durchgeführt.

[4] = Acute toxicity LD50 in mice, i.v.; conditions: mouse, in vivo, iv; Maus (i.v.); read-out: LD₅₀

SMILES | LD50 [1] | IC20 [2] | Prematurity Faktor Vmax [2] | Rate-Faktor von Vmax [2] | IC20 [3] | LD50 [4] | C20 Vmax [2] | C20 CF [3]
COc1ccc(CCC(=O)c2cc(OC)c(OC)c(OC)c2)cc1OCC(O)CNC(C)(C)C.Cl (centres unmarked) [Beispiel 31, 1-(3,4,5-Trimethoxyphenyl)-3-[3′-(2-hydroxy-3-tert.-butylaminopropoxy)-4′-methoxyphenyl]-1-propanon-hydrochlorid] | 13 mg/kg | 1.4 µM | 0,97 | 1,15 | 5 µM | 18 mg/kg |  | 
COc1cc(C(=O)CCc2cccc(OCC(O)CNC(C)C)c2)cc(OC)c1OC.Cl (centres unmarked) [Beispiel 9, 1-(3,4,5-Trimethoxyphenyl)-3-[3′-(2-hydroxy-3-isopropylaminopropoxy)-phenyl]-1-propanon-hydrochlorid] |  | 9.1 µM | 1,01 | 1,26 | 15 µM |  |  | 
CCCNCC(O)COc1cccc(CCC(=O)c2ccc(OC)cc2)c1.Cl (centres unmarked) [Beispiel 7, 1-(4-Methoxyphenyl)-3-[3′-(2-hydroxy-3-n-propylaminopropoxy)-phenyl]-1-propanon-hydrochlorid] |  | 2.9 µM | 0,90 | 1,21 | 6 µM |  |  | 
COc1ccc(CCC(=O)c2ccc(C)cc2)cc1OCC(O)CNC(C)(C)C.Cl (centres unmarked) [Beispiel 39, 1-(4-Methylphenyl)-3-[3′-(2-hydroxy-3-tert.-butylaminopropoxy)-4′-methoxyphenyl]-1-propanon-hydrochlorid] |  | 1.2 µM | 0,94 | 1,51 | 4 µM |  |  | 
CCCNCC(O)COc1cc(CCC(=O)c2c(C)cc(C)cc2C)ccc1OC.O=C(O)C(=O)O (centres unmarked) [Beispiel 44, 1-(2,4,6-Trimethylphenyl)-3-[3′-(2-hydroxy-3-n-propylaminopropoxy)-4′-methoxyphenyl]-1-propanon-oxalat] |  | 1.7 µM | 1,10 | 1,03 | 14 µM |  |  | 
COc1ccc(CCC(=O)c2ccccc2OC)cc1OCC(O)CNC(C)(C)C.Cl (centres unmarked) [Beispiel 35, 1-(2-Methoxyphenyl)-3-[3′-(2-hydroxy-3-tert.-butylaminopropoxy)-4′-methoxyphenyl]-1-propanon-hydrochlorid] |  | 3 µM | 0,91 |  | 10 µM |  |  | 
COc1cc(C(=O)CCc2cccc(OCC(O)CNC(C)(C)C)c2)cc(OC)c1OC.Cl (centres unmarked) [Beispiel 10, 1-(3,4,5-Trimethoxyphenyl)-3-[3′-(2-hydroxy-3-tert.-butylaminopropoxy)-phenyl]-1-propanon-hydrochlorid] |  | 2.6 µM | 0,99 | 1,17 | 5 µM |  |  | 
CCC(C)(C)NCC(O)COc1cc(CCC(=O)c2cc(OC)c(OC)c(OC)c2)ccc1OC.Cl (centres unmarked) [Beispiel 28, 1-(3,4,5-Trimethoxyphenyl)-3-[3′-(2-hydroxy-3-tert.-pentylaminopropoxy)-4′-methoxyphenyl]-1-propanon-hydrochlorid] | 11 mg/kg | 1.4 µM | 1,01 |  | 6 µM | 16 mg/kg |  | 
CCCNCC(O)COc1cc(CCC(=O)c2ccc3ccccc3c2)ccc1OC.Cl (centres unmarked) [Beispiel 48, 1-(2-Napthyl)-3-[3′-(2-hydroxy-3-n-propylaminopropoxy)-4′-methoxyphenyl]-1-propanon-hydrochlorid] |  |  | 0,90 | 1,43 |  |  | 1,1 µM | 9,0 µM
COc1ccc(CCC(=O)c2ccc3ccccc3c2)cc1OCC(O)CNC(C)C.Cl (centres unmarked) [Beispiel 49, 1-(2-Naphthyl)-3-[3′-(2-hydroxy-3-isopropylaminopropoxy)-4′-methoxyphenyl]-1-propanon-hydrochlorid] |  | 12.1 µM | 0,50 | 4,00 | 14 µM |  |  | 
COc1ccc(CCC(=O)c2cc(OC)c(OC)c(OC)c2)cc1OCC(O)CNC(C)C.Cl (centres unmarked) [Beispiel 30, 1-(3,4,5-Trimethoxyphenyl)-3-[3′-(2-hydroxy-3-isopropylaminopropoxy)-4′-methoxyphenyl]-1-propanon-hydrochlorid] |  | 2.5 µM | 1,01 | 1,13 | 5 µM |  |  | 
CCC(C)(C)NCC(O)COc1cccc(CCC(=O)c2c(C)cc(C)cc2C)c1.Cl (centres unmarked) [Beispiel 11, 1-(2,4,6-Trimethylphenyl)-3-[3′-(2-hydroxy-3-tert.-pentylaminopropoxy)-phenyl]-1-propanon-hydrochlorid] |  | 3.3 µM | 0,95 | 1,15 | 10 µM |  |  | 
CCC(C)(C)NCC(O)COc1cc(CCC(=O)c2ccc(OC)c(OC)c2)ccc1OC.Cl (centres unmarked) [Beispiel 27, 1-(3,4-Dimethoxyphenyl)-3-[3′-(2-hydroxy-3-tert.-pentylaminopropoxy)-4′-methoxyphenyl]-1-propanon-hydrochlorid] |  | 3.5 µM | 1,05 | 1,25 | 15 µM |  |  | 
Cc1cc(C)c(C(=O)CCc2cccc(OCC(O)CNC(C)(C)C)c2)c(C)c1.Cl (centres unmarked) [Beispiel 14, 1-(2,4,6-Trimethylphenyl)-3-[3′-(2-hydroxy-3-tert.-butylaminopropoxy)-phenyl]-1-propanon-hydrochlorid] |  | 11.9 µM | 0,95 | 1,47 | 20 µM |  |  | 
Cc1cc(C)c(CC(=O)Cc2cccc(OCC(O)CNC(C)(C)C)c2)c(C)c1.Cl (centres unmarked) [Beispiel 17, 1-(2,4,6-Trimethylphenyl)-3-[3′-(2-hydroxy-3-tert.-butylaminopropoxy)-phenyl]-propanon-hydrochlorid] |  | 1.7 µM | 0,99 | 1,12 | 15 µM |  |  | 
CCC(C)(C)NCC(O)COc1cccc(CCC(=O)c2cc(OC)c(OC)c(OC)c2)c1.Cl (centres unmarked) [Beispiel 8, 1-(3,4,5-Trimethoxyphenyl)-3-[3′-(2-hydroxy-3-tert.-pentylaminopropoxy)-phenyl]-1-propanon-hydrochlorid] |  | 1.6 µM |  | 5,00 | 3 µM |  |  | 
COc1ccc(CCC(=O)c2cc(OC)c(OC)c(OC)c2)cc1OCC(O)CNC1CCCCC1.Cl (centres unmarked) [Beispiel 32, 1-(3,4,5-Trimethoxyphenyl)-3-[3′-(2-hydroxy-3-cyclohexylaminopropoxy)-4′-methoxyphenyl]-1-propanon-hydrochlorid] |  | 1.1 µM | 1,05 | 1,25 | 9 µM |  |  | 
CCC(C)(C)NCC(O)COc1cc(CCC(=O)c2ccc3ccccc3c2)ccc1OC.Cl (centres unmarked) [Beispiel 47, 1-(2-Naphthyl)-3-[3′-(2-hydroxy-3-tert.-pentylaminopropoxy)-4′-methoxyphenyl]-1-propanon-hydrochlorid] |  | 6.1 µM | 1,10 | 1,22 | 17 µM |  |  | 
Cc1cc(C)c(C(=O)CCc2cccc(OCC(O)CNC(C)C)c2)c(C)c1.Cc1cc(C)c(C(=O)CCc2cccc(OCC(O)CNC(C)C)c2)c(C)c1.O=C(O)C(=O)O (centres unmarked) [Beispiel 15, 1-(2,4,6-Trimethylphenyl)-3-[3′-(2-hydroxy-3-isopropylaminopropoxy)-phenyl]-1-propanon-semi-oxalat] |  |  | 0,94 | 1,09 |  |  | 1,0 µM | 7,0 µM
COc1ccc(C(=O)CCc2ccc(OC)c(OCC(O)CNC(C)C)c2)cc1OC.Cl (centres unmarked) [Beispiel 23, 1-(3,4-Dimethoxyphenyl)-3-[3′-(2-hydroxy-3-isopropylaminopropoxy)-4′-methoxyphenyl]-1-propanon-hydrochlorid] |  | 2.2 µM | 1,05 | 5,00 | 6 µM |  |  | 
COc1ccc(CCC(=O)c2ccc(C)cc2)cc1OCC(O)CN1CCCCC1.Cl (centres unmarked) [Beispiel 40, 1-(4-Methylphenyl)-3-[3′-(2-hydroxy-3-piperidinopropoxy)-4′-methoxyphenyl]-1-propanon-hydrochlorid] |  | 1.3 µM | 0,94 | 1,33 | 5 µM |  |  | 
COc1ccc(C(=O)CCc2ccc(OC)c(OCC(O)CNC(C)(C)C)c2)cc1OC.Cl (centres unmarked) [Beispiel 25, 1-(3,4-Dimethoxyphenyl)-3-[3′-(2-hydroxy-3-tert.-butylaminopropoxy)-4′-methoxyphenyl]-1-propanon-hydrochlorid] |  | 2.4 µM | 1,01 | 1,21 | 6 µM |  |  | 
CCCNCC(O)COc1ccccc1C(=O)CCc1ccccc1 (centres unmarked) [A, Propafenon, reference compound] |  |  | 0,97 | 1,08 |  |  | 3,7 µM | 5,3 µM
CCCNCC(O)COc1cc(CCC(=O)c2ccc(OC)c(OC)c2)ccc1OC.Cl (centres unmarked) [Beispiel 22, 1-(3,4-Dimethoxyphenyl)-3-[3′-(2-hydroxy-3-n-propylaminopropoxy)-4′-methoxyphenyl]-1-propanon-hydrochlorid] |  | 3.2 µM | 0,99 | 0,97 | 7 µM |  |  | 
CCCNCC(O)COc1cc(CCC(=O)c2ccc(C)cc2)ccc1OC.Cl (centres unmarked) [Beispiel 37, 1-(4-Methylphenyl)-3-[3′-(2-hydroxy-3-n-propylaminopropoxy)-4′-methoxyphenyl]-1-propanon-hydrochlorid] |  | 2.6 µM | 0,94 | 1,22 | 5 µM |  |  | 
